# Measurements reported in article PMC3139667, “A Screen against Leishmania Intracellular Amastigotes: Comparison to a Promastigote Screen and Identification of a Host Cell-Specific Hit” (PLoS Neglected Tropical Diseases, 2011).
# Entries after “also recorded” stand apart in the source; their conditions may differ. Structures can show the parent of a compound that is named as a salt. Where two headings read alike, the source gives them in different places.
# Experiments:
# [1] = tested on: L. donovani promastigotes; test: Promastigote high-throughput ATP-bioluminescence assay; assay type: cell-based, Leishmania donovani; settings: for GI50: 72 h at 27°C, CellTiter-Glo, read-out: GI50 Promastigote
# Method: L. donovani promastigotes from an exponentially growing culture were diluted to 10^6/ml in RPMI containing 10% FBS and 10% BHT. The diluted culture (99 µl/well) was dispensed in sterile 96-well flat white opaque assay plates (Greiner Bio-One) using a WellMate multichannel dispenser (Matrix). 1 µl of 1 mM test compound dissolved in DMSO was added to the plates for a final concentration of 10 µM compound and 1% DMSO. Amphotericin B was added as a positive control (final concentration 2 µM, 1% DMSO) and as a negative control, 1 µl DMSO was added (1% final concentration). Compounds and controls were added to the assay plate with the robotic dispenser Biomek FXp liquid handler (Beckman Coulter). Promastigotes were incubated with the compounds for 72 h at 27°C. The parasites were then lysed by adding 50 µl of CellTiter-Glo (Promega) and placed on an orbital shaker for 5 min at room temperature. After lysis, the resulting ATP-bioluminescence was measured using the Analyst HT plate reader (Molecular Devices). Percentage inhibition of parasite growth was calculated for each well as [1-(RLUx-RLU^+)/(RLU^--RLU^+)]*100 where RLUx, RLU^+ and RLU^- are respectively the Relative Light Units for each well, positive (amphotericin B) and negative (DMSO) controls. A screening window coefficient, denoted Z' factor, was used to evaluate the performance of the assay. The Z' factor, calculated as 1-(3σc++3σc−)/(µc+−µc−) where σc+, σc−, µc+ and µc− are respectively the standard deviation and mean values of positive and negative controls, is reflective of the assay signal dynamic range and the data variation associated with signal measurement. […] GI50 curve fitting was carried out using GraphPad Prism 4 Software (GraphPad Software Inc., San Diego, CA).
# [2] = tested on: L. donovani intracellular amastigotes; test: Intracellular amastigote high-throughput image-based assay in infected THP-1 macrophages; assay type: cell-based, Leishmania donovani; settings: for GI50: L. donovani in THP-1, 72 h, parasites per host cell, read-out: GI50 Intracellular amastigote
# Method: (§1) Sterile, black, 96-well, clear bottom plates (Greiner Bio-One) were seeded with exponentially growing THP-1 (5×10^5cells/ml). THP-1 were treated with 0.1 µM phorbol myristate acetate (PMA, Sigma) at 37°C for 48 h to achieve differentiation into adherent, non-dividing macrophages. Maturation of THP-1 cells towards monocyte-macrophage like cells is essential to avoid parasitized cells being overgrown by replicating cells. After activation by PMA, cells were washed and incubated with complete RPMI medium containing stationary phase L. donovani promastigotes at a macrophage/promastigote ratio of 1/15. After 4 h incubation at 37°C, non-internalized promastigotes were removed by 2–3 successive washes with RPMI containing 5% FBS and 5% horse serum. Test compounds (10 µM), positive control (2 µM amphotericin B) or negative control (1% DMSO) were then added to the cultures using a Biomek FXp liquid handler (Beckman Coulter). Cultures were incubated at 37°C for 72 h. Cells were then washed with phosphate-buffered saline (PBS), fixed for 30 minutes with 4% formaldehyde, rinsed again with PBS, stained for 2 h with 4′,6′-diamidino-2-phenylindole (DAPI 300 nM) and finally washed with PBS. […] Images were acquired with an INCell Analyzer 1000 automated epi-fluorescent microscope (G.E. Healthcare). The excitation and emission filters used to detect DAPI were 350/50 nm and 460/40 nm respectively. Eight image fields were acquired per well with a 20X objective. The proprietary INCell Developer Toolbox 1.7 software was used for image analysis. Segmentation parameters were set to identify host nuclei with a minimum area of 250 µm^2 and parasite kinetoplast with an average area of 1 µm^2. The intensity of parasite nucleus was too low to be detected with a 20X objective. A border, representing the boundary of the cell, was drawn around the nucleus (total area between 700 and 2000 µm^2). Only parasites found within this area were included in the calculation to eliminate extracellular parasites. False positive parasite detection in the nucleus was also excluded from the calculation. Host cell nuclei and parasite kinetoplasts were counted and the ratio of parasites DNA to host nuclei was selected as the measurement output. Percentage inhibition of parasite growth was calculated as [1-(P/hcx-P/hc^+)/(P/hc^−-P/hc^+)]*100 where P/hcx, P/hc^+ and P/hc^− are parasite per host cell ratio for every well, positive control (amphotericin B) and negative control (DMSO) respectively. Calculation of Z' factor and GI50 curve fitting were carried out as described above.
# THP-1 = test: Host cell toxicity: THP-1 host nuclei counts in the image-based assay; settings: for GI50: read-out: GI50 THP-1; for Selectivity: ratio between parasite GI50 and THP-1 GI50
# Method: as §1
# [3] = tested on: L. donovani axenic amastigotes; test: Dose response study against axenic amastigotes (CellTiter-Glo); assay type: cell-based, Leishmania donovani; settings: for GI50: 72 h at 37°C, CellTiter-Glo, read-out: GI50 Axenic amastigote
# Method: L. donovani axenic amastigotes (5×10^5 cells/ml in axenic amastigote media) were dispensed in sterile 96-well flat white opaque assay plates (Greiner Bio-One) using a WellMate multichannel dispenser (Matrix). […] 1% DMSO and amphotericin B (2 µM, 1% DMSO final concentration) were added as negative and positive controls respectively. Axenic amastigotes were incubated with the compounds for 72 h at 37°C with 5% CO2. Parasite viability was then measured using CellTiter-Glo as described above.
# [4] = Leishmania donovani, THP-1, 72 h
# [5] = ratio between promastigote GI50 and intracellular amastigote GI50, >2 more active against intracellular amastigote, <0.4 more active against promastigotes
# [6] = 10 µM, duplicates, hit = 60% parasite growth inhibition and not more than 20% reduction in THP-1 numbers
# [7] = PMA-differentiated infected THP-1, 72 h, host nuclei count
SMILES,GI50 ([1]; Leishmania donovani) [µM],"GI50 [2, 4] [µM]","Specificity [2, 5]","GI50 (THP-1; Homo sapiens, THP-1, 72 h) [µM]",Selectivity (THP-1),GI50 ([3]; Leishmania donovani) [µM],"Activity against promastigotes (in words) ([1]; dose response, up to 50 µM)","Primary screen against intracellular amastigotes, hit selection [2]",Specificity [2],GI50 [2] [µM],GI90 intracellular amastigote ([2]; curative concentration) [µM],GI90 THP-1 (THP-1) [µM],"Activity against axenic amastigotes (in words) ([3]; dose response, up to 50 µM)","Primary screen against intracellular amastigotes, hit selection [2, 6]",GI50 [1] [µM],GI50 (THP-1; [7]) [µM],GI50 [3] [µM]
CN1C[C@H](CNC(=O)OCc2ccccc2)C[C@@H]2c3cccc4c3c(cn4C)C[C@H]21 [Metergoline],15.1,0.78,19.17,37.1,47.22,> 50,,,,,,,,,,,
Clc1ccc(COC(Cn2ccnc2)c2ccc(Cl)cc2Cl)c(Cl)c1 (centres unmarked) [Miconazole],7.48,15.4,0.48,> 16.5,1.07,4.73,,,,,,,,,,,
C=CCN1CC[C@]23c4c5ccc(O)c4O[C@H]2/C(=N/N=C2\CC[C@@]4(O)[C@H]6Cc7ccc(O)c8c7[C@@]4(CCN6CC=C)[C@H]2O8)CC[C@@]3(O)[C@H]1C5 [Naloxonazine],> 50,3.45,,33.8,9.68,> 50,no activity; also recorded: completely inactive,complete specificity for the intracellular amastigote stage,14.32,3.49,12.5,50,no activity,,,,
COC(=O)C1=C(C)NC(C)=C(C(=O)OCC(C)C)C1c1ccccc1[N+](=O)[O-] (centres unmarked) [Nisoldipine],9.85,32.2,0.30,> 16.5,1.67,13.9,,,,,,,,,,,
C=C1C(=O)O[C@H]2[C@H]1CC/C(C)=C/CC[C@@]1(C)O[C@@H]21 [Parthenolide],15.5,> 50,0.31,> 16.5,1.06,4.35,,,,,,,,,,,
N=C(N)c1ccc(OCCCCCOc2ccc(C(=N)N)cc2)cc1 [Pentamidine Isethionate],1.69,9.55,0.17,> 50,29.49,1.64,,,,,,,,active,,,
COc1cc2nc(N3CCN(C(=O)c4ccco4)CC3)nc(N)c2cc1OC.Cl [Prazocin Hydrochloride],,,,,3.46,,,,2.48,6.73,,,,,16.7,23.3,> 50
CN1CCc2cccc3c2[C@H]1Cc1ccc(O)c(O)c1-3 [R(-)-Apomorphine],,,,,6.1,,,,14.12,2.7,,,,,38.1,> 16.5,5.2
CC[C@@H](C(=O)[C@@H](C)[C@@H](O)[C@H](C)[C@@H]1O[C@@H]([C@@H](CC)C(=O)O)CC[C@@H]1C)[C@H]1O[C@]2(C=C[C@@H](O)[C@]3(CC[C@@](C)([C@H]4CC[C@](O)(CC)[C@H](C)O4)O3)O2)[C@H](C)C[C@@H]1C [Salinomycin],2.71,0.92,,16.1,17.30,0.06,,,2.92,,,,,,,,
CC/C(=C(\c1ccccc1)c1ccc(OCCN(C)C)cc1)c1ccccc1 [Tamoxifen Citrate],10.2,20.8,0.49,> 16.5,1.61,> 50,,,,,,,,active,,,
CCOc1ccccc1OCCN[C@H](C)Cc1ccc(OC)c(S(N)(=O)=O)c1 [Tamsulosin],20,6.3,3.17,28,4.43,> 50,,,,,,,,,,,
